From ChEMBL document CHEMBL3817806, “Novel benzimidazol-2-ylidene carbene precursors and their silver(I) complexes: Potential antimicrobial agents” (2016)
In brackets after ≈: the same amount, converted by molar mass.

What was measured:
Type in all cases: functional
[1] = test system: Candida albicans; experiment: Antifungal activity against Candida albicans ATCC 10231 after 48 hrs by agar dilution method; conditions: ATCC 10231, 48 h
[2] = test system: Candida tropicalis; experiment: Antifungal activity against Candida tropicalis ATCC 13803 after 48 hrs by agar dilution method; conditions: ATCC 13803, 48 h
[3] = test system: Escherichia coli; experiment: Antibacterial activity against Escherichia coli ATCC 25922 after 16 to 20 hrs by agar dilution method
[4] = test system: Enterococcus faecalis; experiment: Antibacterial activity against Enterococcus faecalis ATCC 29212 after 16 to 20 hrs by agar dilution method
[5] = test system: Pseudomonas aeruginosa; experiment: Antibacterial activity against Pseudomonas aeruginosa ATCC 27853 after 16 to 20 hrs by agar dilution method
[6] = test system: Staphylococcus aureus; experiment: Antibacterial activity against Staphylococcus aureus ATCC 29213 after 16 to 20 hrs by agar dilution method

Structure (SMILES)	MIC [1] [µg/mL]	MIC [2] [µg/mL]	MIC [3] [µg/mL]	MIC [4] [µg/mL]	MIC [5] [µg/mL]	MIC [6] [µg/mL]
OC(Cn1cncn1)(Cn1cncn1)c1ccc(F)cc1F [FLUCONAZOLE]	3.12 (≈ 10.2 µM)	3.12 (≈ 10.2 µM)	–	–	–	–
CCOc1ccccc1OCCn1c[n+](Cc2ccc(C(C)(C)C)cc2)c2ccccc21.[Br-]	50	50	50	200	400	50
CC1(C)S[C@@H]2[C@H](NC(=O)[C@H](N)c3ccccc3)C(=O)N2[C@H]1C(=O)O [AMPICILLIN]	–	–	3.12 (≈ 8.93 µM)	1.56 (≈ 4.46 µM)	–	3.12 (≈ 8.93 µM)
CCCC[n+]1cn(CCOc2ccccc2OCC)c2ccccc21.[Br-]	25	25	50	50	50	50
CCOc1ccccc1OCCn1c[n+](Cc2ccc(C(C)C)cc2)c2ccccc21.[Br-]	400	400	800	800	800	800
CCOc1ccccc1OCCn1c[n+](CCOC)c2ccccc21.[Br-]	800	800	800	800	800	800
O=C(O)c1cn(C2CC2)c2cc(N3CCNCC3)c(F)cc2c1=O [CIPROFLOXACIN]	–	–	–	0.78 (≈ 2.35 µM)	3.12 (≈ 9.42 µM)	0.39 (≈ 1.18 µM)
CCOc1ccccc1OCCn1c[n+](Cc2c(C)cc(C)cc2C)c2ccccc21.[Br-]	50	50	50	800	800	50
CCOc1ccccc1OCCn1c[n+](Cc2c(C)c(C)cc(C)c2C)c2ccccc21.[Br-]	400	400	400	800	800	400
CCOc1ccccc1OCCn1c[n+](CCOc2ccccc2OCC)c2ccccc21.[Br-]	200	200	200	400	400	200
CCOc1ccccc1OCCn1c[n+](Cc2cccc(OC)c2)c2ccccc21.[Cl-]	800	800	800	800	800	800
